Source: patent publication US10670605B2, “Cysteine reactive probes and uses thereof” (The Scripps Research Institute, priority 2015, dated 2020)
Each block holds one compound with its values, some of them ahead of it.

Key:
Test in all cases: Competitive isoTOP-ABPP in situ (fragment-treated cells)
Format in all cases: cell-based
[1] = molecular target: T1, cysteines in MDA-MB-231 and Ramos cells (Homo sapiens, UniProt Q96RN5)
T1 sequence (Q96RN5 1-788): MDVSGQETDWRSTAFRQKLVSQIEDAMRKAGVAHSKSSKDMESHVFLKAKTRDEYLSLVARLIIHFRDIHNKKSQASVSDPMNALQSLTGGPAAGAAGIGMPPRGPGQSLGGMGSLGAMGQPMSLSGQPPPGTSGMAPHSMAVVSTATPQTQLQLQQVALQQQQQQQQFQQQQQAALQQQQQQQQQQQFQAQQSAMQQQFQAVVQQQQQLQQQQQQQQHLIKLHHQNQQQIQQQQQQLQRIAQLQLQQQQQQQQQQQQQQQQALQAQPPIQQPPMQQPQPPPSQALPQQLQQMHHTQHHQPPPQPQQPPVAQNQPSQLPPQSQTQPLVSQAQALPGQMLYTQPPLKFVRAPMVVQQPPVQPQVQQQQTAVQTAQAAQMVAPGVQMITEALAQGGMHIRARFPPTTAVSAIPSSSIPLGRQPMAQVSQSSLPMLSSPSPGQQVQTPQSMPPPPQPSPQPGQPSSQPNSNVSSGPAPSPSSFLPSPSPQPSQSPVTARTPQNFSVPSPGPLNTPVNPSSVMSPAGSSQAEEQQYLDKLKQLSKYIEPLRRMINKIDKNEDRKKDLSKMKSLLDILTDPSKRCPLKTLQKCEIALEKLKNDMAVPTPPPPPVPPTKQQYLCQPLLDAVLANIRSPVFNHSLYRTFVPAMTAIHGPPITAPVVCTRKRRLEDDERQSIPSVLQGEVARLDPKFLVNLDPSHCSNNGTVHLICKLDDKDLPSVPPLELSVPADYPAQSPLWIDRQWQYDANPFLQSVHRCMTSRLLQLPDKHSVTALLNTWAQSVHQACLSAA

[2] = molecular target: cysteines in MDA-MB-231 and Ramos cells (Homo sapiens, UniProt Q9Y696)
[3] = molecular target: T2, cysteines in MDA-MB-231 and Ramos cells (Homo sapiens, UniProt P42166)
T2 sequence (P42166 1-694): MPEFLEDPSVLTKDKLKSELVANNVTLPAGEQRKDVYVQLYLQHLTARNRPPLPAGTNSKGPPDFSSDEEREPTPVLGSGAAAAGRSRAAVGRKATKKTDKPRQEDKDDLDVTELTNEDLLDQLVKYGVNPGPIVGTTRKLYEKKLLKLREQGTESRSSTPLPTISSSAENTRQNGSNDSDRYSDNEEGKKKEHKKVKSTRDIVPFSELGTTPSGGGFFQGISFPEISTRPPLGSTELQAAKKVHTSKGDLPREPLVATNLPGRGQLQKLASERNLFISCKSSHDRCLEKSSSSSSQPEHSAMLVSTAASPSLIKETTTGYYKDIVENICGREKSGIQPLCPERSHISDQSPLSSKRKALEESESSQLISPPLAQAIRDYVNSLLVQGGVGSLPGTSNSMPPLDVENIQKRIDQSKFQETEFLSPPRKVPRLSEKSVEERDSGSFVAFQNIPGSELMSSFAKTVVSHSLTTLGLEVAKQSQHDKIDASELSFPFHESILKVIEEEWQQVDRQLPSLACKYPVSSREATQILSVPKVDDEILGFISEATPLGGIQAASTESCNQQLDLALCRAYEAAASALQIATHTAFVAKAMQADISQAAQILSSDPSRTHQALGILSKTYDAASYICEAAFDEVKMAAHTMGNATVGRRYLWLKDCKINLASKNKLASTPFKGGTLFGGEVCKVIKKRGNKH

[4] = molecular target: T3, cysteines in MDA-MB-231 and Ramos cells (Homo sapiens, UniProt O15294)
T3 sequence (O15294 1-1046): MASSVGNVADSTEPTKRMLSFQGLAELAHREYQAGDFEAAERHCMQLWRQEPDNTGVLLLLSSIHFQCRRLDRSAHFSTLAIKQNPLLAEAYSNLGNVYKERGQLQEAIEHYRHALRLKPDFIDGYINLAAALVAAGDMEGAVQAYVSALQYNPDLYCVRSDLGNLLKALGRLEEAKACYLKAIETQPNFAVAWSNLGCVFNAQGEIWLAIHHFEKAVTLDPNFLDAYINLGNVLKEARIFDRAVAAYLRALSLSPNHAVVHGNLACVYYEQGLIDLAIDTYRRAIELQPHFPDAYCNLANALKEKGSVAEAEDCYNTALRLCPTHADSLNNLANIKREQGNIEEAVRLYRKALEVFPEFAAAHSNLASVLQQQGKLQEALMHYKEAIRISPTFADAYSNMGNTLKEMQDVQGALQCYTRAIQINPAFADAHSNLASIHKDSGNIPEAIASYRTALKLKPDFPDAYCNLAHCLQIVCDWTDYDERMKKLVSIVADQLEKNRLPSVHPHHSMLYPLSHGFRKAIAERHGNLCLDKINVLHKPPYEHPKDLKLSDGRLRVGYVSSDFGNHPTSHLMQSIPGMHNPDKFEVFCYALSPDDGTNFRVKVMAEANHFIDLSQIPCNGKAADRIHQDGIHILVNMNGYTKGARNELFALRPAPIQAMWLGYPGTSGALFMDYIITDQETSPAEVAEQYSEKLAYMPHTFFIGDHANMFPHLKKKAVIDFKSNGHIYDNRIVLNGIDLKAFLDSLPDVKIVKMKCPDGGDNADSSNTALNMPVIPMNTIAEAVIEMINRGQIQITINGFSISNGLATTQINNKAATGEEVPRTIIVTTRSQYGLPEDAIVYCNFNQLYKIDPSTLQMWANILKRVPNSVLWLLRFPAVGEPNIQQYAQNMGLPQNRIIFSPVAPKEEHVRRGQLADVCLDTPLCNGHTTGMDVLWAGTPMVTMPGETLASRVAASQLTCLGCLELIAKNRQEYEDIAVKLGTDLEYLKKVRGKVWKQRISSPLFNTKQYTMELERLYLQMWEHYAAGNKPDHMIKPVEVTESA

[5] = molecular target: T4, cysteines in MDA-MB-231 and Ramos cells (Homo sapiens, UniProt Q9BVC5)
T4 sequence (Q9BVC5 1-232): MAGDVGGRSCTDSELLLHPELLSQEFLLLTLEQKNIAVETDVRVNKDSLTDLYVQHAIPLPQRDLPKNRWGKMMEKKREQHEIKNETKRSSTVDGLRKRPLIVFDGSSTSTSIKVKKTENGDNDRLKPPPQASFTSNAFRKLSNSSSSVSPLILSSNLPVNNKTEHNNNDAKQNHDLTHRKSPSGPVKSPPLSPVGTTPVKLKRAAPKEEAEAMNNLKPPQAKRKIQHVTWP

Sequence of cysteines in MDA-MB-231 and Ramos cells (Homo sapiens, UniProt Q9Y696) (Q9Y696 whole entry): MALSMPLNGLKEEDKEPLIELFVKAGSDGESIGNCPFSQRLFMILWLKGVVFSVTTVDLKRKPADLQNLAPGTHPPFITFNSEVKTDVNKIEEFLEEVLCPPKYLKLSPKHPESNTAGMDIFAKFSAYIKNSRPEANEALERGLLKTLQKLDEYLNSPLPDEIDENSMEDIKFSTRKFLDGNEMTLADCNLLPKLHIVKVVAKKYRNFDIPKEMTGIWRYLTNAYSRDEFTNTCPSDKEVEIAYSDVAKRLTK

SMILES: Cn1cc(S(=O)(=O)N2CCOCC2)cc1C(=O)NC(=O)CCl [compound 11]
- isoTOP-ABPP ratio Q96RN5_C618 ([1]; 100 μM in situ 231): 1.0
- isoTOP-ABPP ratio Q9Y696_C35 ([2]; 100 μM in situ 231): 1.9
- isoTOP-ABPP ratio P42166_C341 ([3]; 100 μM in situ 231): 0.8
- isoTOP-ABPP ratio P42166_C561 ([3]; 100 μM in situ 231): 0.6
- isoTOP-ABPP ratio, cysteine P42166_C518 ([3]; 100 μM in situ 231): 0.8
- isoTOP-ABPP ratio, cysteine P42166_C629 ([3]; 100 μM in situ 231): 0.6
- isoTOP-ABPP ratio, cysteine P42166_C684 ([3]; 100 μM in situ 231): 0.7
- isoTOP-ABPP ratio O15294_C758 ([4]; 100 μM in situ 231): 1.0
- isoTOP-ABPP ratio Q9BVC5_C10 ([5]; 100 μM in situ 231): 1.1

SMILES: COc1ccc2c(c1)CCCN2C(=O)CCl [compound 2]
- isoTOP-ABPP reactivity O96RN5_C618 MED15 ([1]; 200 μM, insitu, 231): 6.4
- isoTOP-ABPP reactivity Q9Y696_C35 CLIC4 ([2]; 200 μM, insitu, 231): 1.7
- isoTOP-ABPP reactivity P42166_C341 TMPO ([3]; 200 μM, insitu, 231): 10.4
- isoTOP-ABPP reactivity P42166_C561 TMPO ([3]; 200 μM, insitu, 231): 8.3
- isoTOP-ABPP reactivity P42166_C629 TMPO ([3]; 200 μM, insitu, 231): 4.4
- isoTOP-ABPP reactivity 015294_C758 OGT ([4]; 200 μM, insitu, 231): 2.6
- isoTOP-ABPP reactivity Q9BVC5_C10 C2orf49 ([5]; 200 μM, insitu, 231): 2.7

SMILES: COc1cc2c(cc1OC)CN(C(=O)CCl)CC2 [compound 8]
- isoTOP-ABPP reactivity O96RN5_C618 MED15 ([1]; 200 μM, insitu, 231): 20.0
- isoTOP-ABPP reactivity Q9Y696_C35 CLIC4 ([2]; 200 μM, insitu, 231): 4.7
- isoTOP-ABPP reactivity P42166_C341 TMPO ([3]; 200 μM, insitu, 231): 4.4
- isoTOP-ABPP reactivity P42166_C561 TMPO ([3]; 200 μM, insitu, 231): 4.6
- isoTOP-ABPP reactivity P42166_C629 TMPO ([3]; 200 μM, insitu, 231): 1.7
- isoTOP-ABPP reactivity P42166_C684 TMPO ([3]; 200 μM, insitu, 231): 4.6
- isoTOP-ABPP reactivity 015294_C758 OGT ([4]; 200 μM, insitu, 231): 2.4
- isoTOP-ABPP reactivity Q9BVC5_C10 C2orf49 ([5]; 200 μM, insitu, 231): 4.5

SMILES: O=C(CCl)N1CCN(S(=O)(=O)c2ccccc2F)CC1 [compound 10]
- isoTOP-ABPP ratio Q9Y696_C35 ([2]; 200 μM, insitu, 231): 2.7
- isoTOP-ABPP ratio Q9Y696_C35 ([2]; 200 μM, insitu, ramos): 1.6
- isoTOP-ABPP ratio P42166_C561 ([3]; 200 μM, insitu, 231): 17.8
- isoTOP-ABPP ratio, cysteine P42166_C518 ([3]; 200 μM, insitu, 231): 4.2
- isoTOP-ABPP ratio, cysteine P42166_C629 ([3]; 200 μM, insitu, 231): 2.5
- isoTOP-ABPP ratio, cysteine P42166_C684 ([3]; 200 μM, insitu, 231): 5.2
- isoTOP-ABPP ratio O15294_C758 ([4]; 200 μM, insitu, 231): 2.3
- isoTOP-ABPP ratio, cysteine O15294_C620 ([4]; 200 μM, insitu, ramos): 12 .0
- isoTOP-ABPP ratio Q9BVC5_C10 ([5]; 200 μM, insitu, 231): 3.1

Next, values leading:

- isoTOP-ABPP ratio Q96RN5_C618 ([1]; 200 μM, insitu, 231): 1.4
- isoTOP-ABPP ratio Q9Y696_C35 ([2]; 200 μM, insitu, 231): 1.0
- isoTOP-ABPP ratio P42166_C518 ([3]; 200 μM, insitu, 231): 2.2
- isoTOP-ABPP ratio P42166_C561 ([3]; 200 μM, insitu, 231): 20.0
- isoTOP-ABPP ratio P42166_C684 ([3]; 200 μM, insitu, 231): 3.0
- isoTOP-ABPP ratio Q9BVC5_C10 ([5]; 200 μM, insitu, 231): 0.9
SMILES: C=CC(=O)Nc1cc(F)c(N2CCN(C(=O)OC(C)(C)C)CC2)c(F)c1 [compound 38]

- isoTOP-ABPP ratio Q96RN5_C618 ([1]; 200 μM, insitu, 231): 20.0
- isoTOP-ABPP ratio Q9Y696_C35 ([2]; 200 μM, insitu, 231): 1.4
- isoTOP-ABPP ratio P42166_C561 ([3]; 200 μM, insitu, 231): 20.0
- isoTOP-ABPP ratio P42166_C684 ([3]; 200 μM, insitu, 231): 6.8
- isoTOP-ABPP ratio O15294_C758 ([4]; 200 μM, insitu, 231): 2.9
- isoTOP-ABPP ratio Q9BVC5_C10 ([5]; 200 μM, insitu, 231): 3.4
SMILES: CC1CCc2ccccc2N1C(=O)CCl (stereo not shown) [compound 45]

- isoTOP-ABPP ratio Q96RN5_C618 ([1]; 200 μM, insitu, 231): 0.8
- isoTOP-ABPP ratio Q9Y696_C35 ([2]; 200 μM, insitu, 231): 1.0
- isoTOP-ABPP ratio P42166_C341 ([3]; 200 μM, insitu, 231): 0.6
- isoTOP-ABPP ratio P42166_C561 ([3]; 200 μM, insitu, 231): 0.8
- isoTOP-ABPP ratio O15294_C758 ([4]; 200 μM, insitu, 231): 1.0
- isoTOP-ABPP ratio Q9BVC5_C10 ([5]; 200 μM, insitu, 231): 1.1
SMILES: CC(C)CCOCCNC(=O)CCl [compound 27]

- isoTOP-ABPP ratio Q96RN5_C618 ([1]; 200 μM, insitu, 231): 0.9
- isoTOP-ABPP ratio Q9Y696_C35 ([2]; 200 μM, insitu, 231): 0.6
- isoTOP-ABPP ratio P42166_C561 ([3]; 200 μM, insitu, 231): 1.3
- isoTOP-ABPP ratio P42166_C341 ([3]; 200 μM, insitu, ramos): 2.0
- isoTOP-ABPP ratio P42166_C561 ([3]; 200 μM, insitu, ramos): 2.5
- isoTOP-ABPP ratio P42166_C684 ([3]; 200 μM, insitu, ramos): 3.3
- isoTOP-ABPP ratio O15294_C620 ([4]; 200 μM, insitu, 231): 1.1
SMILES: C=CC(=O)N(Cc1cccnc1)c1cc(C(F)(F)F)cc(C(F)(F)F)c1 [compound 31]
